Assay results as given in US20160270400A1, “Liposome-Attractant Formulations” (priority 2013, published 2016).
“And” between values parts separate entries of the source, which are not always exact repeats. Identical values can stand only once.

Legend:
[1] = system: free living nematodes in soil; details: 24 hour exposure; cited from earlier work
[2] = system: citrus nematode; details: 0.5 hour exposure, same concentration; cited from earlier work
[3] = system: Root-Knot larvae (J2); assay: Effect of nematicides (Oxamyl, Thiodicarb) on Root-Knot larvae (J2) in vitro; set-up: species or system M. incognita; details: for Root-Knot larvae (J2) Alive / Root-Knot larvae (J2) Dead: room temperature, one replicate per line; for Root-Knot larvae (J2) Alive / Root-Knot larvae (J2) Dead / Root-Knot larvae (J2) Alive, non-mobile: 2 days; for Root-Knot larvae (J2) Alive, non-mobile: alive larvae given as non-mobile
Procedure: M. incognita eggs collected from tomato cultures by NaOC1 extraction (Hussey and Barker, 1973). Briefly, six to twelve week old infected tomato roots were cut into 1-2 segment. Root segments were shacked vigorously in 200 ml of a 0.5% Na O Cl solution for 4 min. Then, the Na O Cl solution was passed quickly through a 200-mesh (75-μm), nested over a 500-mesh sieve to collect freed eggs. The a 500-mesh sieve with eggs was quickly placed under a stream of cold water to remove residual Na O cl and rinsed several times. About 50 ml queous suspension of eggs was collected and number of eggs per unit volume will be counted. The egg suspension was allowed to sit at room temperature for 4 days. The hatching juveniles were collected and used in the subsequent experiments.
Determine the efficient concentration of nematicides (Oxamyl and Thidiocarb) that kill or suppress Root-Knot Larvae.
M. incognita eggs collected from tomato cultures by NaOC1 extraction (Hussey & Barker, Plant Disease Reporter. 57:1025-1028 (1973)). Egg suspension was incubated at room temperature until larvae were hatched (4-5 days). The juveniles (J2) were counted and evaluated for activity/mobility for the duration of the study. Four different concentrations of both nematicides (Oxamyl and Thiodicarb) were used to assess their efficacy in killing the nematodes. These were untreated control, 200 ug, 1 mg, 2 mg, and 10 mg. Three replicates of the each concentration were mixed with J2 suspensions and incubated at room temperature for 2 days.
We studied the efficiency of Oxamyl; 200 ug/ml and 100 ug/ml in suppression of J2. […] We used 100 ug of Oxamyl in subsequent studies with liposomes.

[4] = system: root-knot nematodes; assay: Nematicidal activity of Oxamyl-liposome formulation on root-knot nematodes; type: in vivo, M. incognita; details: where oxamyl was added (oxamyl-liposome test, FIG. 1)
Procedure: Liposomes having an aqueous core and phospholipid bilayers were prepared using the thin-film dehydration-rehydration method obtaining, multilamilar vesicles (MLVs) and small unilamellar vesicles (SUVs) (Bangham et al., J. Mol. Biol. 13:238-252 (1965); Gosangari & Watkin, Pharm Dev Technol. 17:383-8 (2012)). Using thin-film hydration method, briefly, required amounts of lipids [1,2-Dipalmitoyl-sn-glycero-3-phosphocholine (DPPC) liposomes and 1, 2-distearoyl-snglycero- 3-phosphocholine (DSPC)] were dissolved in chloroform, and a thin film will be formed on the inner side of the round bottom flask, by evaporating the solvent under vacuum using a rotavapor. The lipid film formed was stored overnight in vacuum desiccator to eliminate traces of chloroform. The film was then hydrated at 58° C., above the Tc of DSPC, using 10 mL of phosphate-buffered saline (PBS, 20 mM […], 150 mM NaCl, pH 7.0) containing different concentration of Oxamyl. […] The unencapsulated oxamyl was then separated using Sephadex G-50 macrospin columns and the encapsulation efficiency was calculated spectrophotometrically at 280 nm. […]
M. incognita eggs collected from tomato cultures by NaOC1 extraction (Hussey & Barker, Plant Disease Reporter. 57:1025-1028 (1973)). […] The juveniles (J2) were counted and evaluated for activity/mobility for the duration of the study. […]

[5] = Abamectin or liposomal abamectin applied to soil prior to planting: gall formation, root necrosis, root length; type: in vivo
Procedure: Abamectin at 5μg or 1μg was directly applied to soil prior to planting. Alternatively abamectin was loaded into liposomes at either 5μg or 1 μg and applied to soil prior to planting. Gall formation was detected. […] Therefore, liposomal abamectin formulations enhance root length as compared to non-liposomal abamectin formulations.

[6] = system: nematode; details: comparison figure; cited from earlier work

## BrCCBr [EDB, ethylene dibromide]
[1]
  population killed: 75%
[2]
  survival: did not survive

## CS/C(C)=N\OC(=O)N(C)SN(C)C(=O)O/N=C(\C)SC [Larvin (Thiodicarb), Thiodicarb]
[3]; 200 ug
  Root-Knot larvae (J2) Alive: 76 and 86 and 89
  Root-Knot larvae (J2) Dead: 23 and 14 and 11
[3]; 1 mg
  Root-Knot larvae (J2) Alive: 75 and 82 and 63
  Root-Knot larvae (J2) Dead: 25 and 18 and 37
[3]; 2 mg
  Root-Knot larvae (J2) Alive: 70 and 85 and 65
  Root-Knot larvae (J2) Dead: 30 and 15 and 35
[3]; 10 mg
  Root-Knot larvae (J2) Alive, non-mobile: 70 non-mobile and 80 non-mobile
  Root-Knot larvae (J2) Dead: 30 (2×) and 20
[3]; compared with Oxamyl, reason for elimination
  concentration required to kill Root-Knot (J2): required higher concentration to kill Root-Knot (J2)

## CNC(=O)O/N=C(\SC)C(=O)N(C)C [Oxamyl (Vydate), Methyl N′N′-dimethyl-N-[(methylcarbamoyl)oxy]-1-thiooxamimidate]
[3]; 200 ug
  Root-Knot larvae (J2) Alive, non-mobile: 60 non-mobile and 58 non-mobile and 50 non-mobile
  Root-Knot larvae (J2) Dead: 40 and 42 and 50
[3]; 1 mg
  Root-Knot larvae (J2) Alive: 0
  Root-Knot larvae (J2) Dead: 100
[3]; 2 mg
  Root-Knot larvae (J2) Alive: 0
  Root-Knot larvae (J2) Dead: 100
[3]; 10 mg
  Root-Knot larvae (J2) Alive: 0
  Root-Knot larvae (J2) Dead: 100
[3]; Meloidogyne incognita, 100 ug/ml
  mortality at 100 µg/mL: 100%
[3]; Meloidogyne incognita, 200 ug/ml
  mortality at 200 µg/mL: 100%
[4]
  state of larvae: dead or paralyzed

## abamectin [non-liposomal abamectin]
[5]; 1 μg applied to soil prior to planting, FIG. 3
  gall formation: most gall formulation
[5]; 5 μg applied to soil prior to planting, FIG. 4
  root necrosis: most root necrosis
[6]
  amount of abamectin needed to treat nematodes when not encapsulated by liposomes: about 2982 mg/acre
